Source: US7820623B2 (priority 2006, dated 2010)
Where two headings read alike, the source gives them in different places. Bridge positions count the residues as written; N and C are the ends. Ends that are not written are not given here. Peptide text beside a SMILES is read from it.

Key:
[1] = tested on: thapsigargin-induced IFN-g production in human whole blood; format: cell-based
[2] = tested on: thapsigargin-induced IL-2 production in human whole blood
[3] = target: human Kv1.3 (Homo sapiens, UniProt P22001); format: cell-based; design: expressed in transfected cells
human Kv1.3, sequence (P22001 whole entry): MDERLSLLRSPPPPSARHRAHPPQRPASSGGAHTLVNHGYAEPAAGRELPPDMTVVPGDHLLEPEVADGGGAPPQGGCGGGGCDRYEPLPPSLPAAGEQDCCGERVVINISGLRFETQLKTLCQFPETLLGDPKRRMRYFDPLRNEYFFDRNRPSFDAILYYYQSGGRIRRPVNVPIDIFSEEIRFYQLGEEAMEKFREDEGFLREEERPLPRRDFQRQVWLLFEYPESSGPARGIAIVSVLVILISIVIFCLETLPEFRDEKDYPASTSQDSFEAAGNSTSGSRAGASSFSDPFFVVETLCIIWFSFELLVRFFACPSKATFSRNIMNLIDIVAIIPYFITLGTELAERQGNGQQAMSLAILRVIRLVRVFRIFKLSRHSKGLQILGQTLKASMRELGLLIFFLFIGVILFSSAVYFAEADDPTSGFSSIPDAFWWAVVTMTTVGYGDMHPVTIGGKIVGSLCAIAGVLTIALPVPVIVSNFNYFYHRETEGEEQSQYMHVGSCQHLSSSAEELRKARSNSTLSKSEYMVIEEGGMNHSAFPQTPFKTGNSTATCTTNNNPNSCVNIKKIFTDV

[4] = read-out: Analogue Activity (IC50) WB/IFNg
[5] = read-out: Analogue Activity (IC50) WB/IL-2

CC[C@H](C)[C@@H]1NC(=O)[C@H](CCCCN)NC(=O)[C@@H](NC(=O)[C@H](CCCCN)NC(=O)[C@@H](NC(=O)[C@H](CC(N)=O)NC(=O)[C@@H](NC(=O)[C@@H](NC(=O)[C@@H](NC(=O)CN)C(C)C)[C@@H](C)CC)[C@@H](C)CC)C(C)C)CSSC[C@@H]2NC(=O)[C@H](CCCCN)NC(=O)CNC(=O)[C@H](Cc3ccccc3)NC(=O)[C@H](CCCNC(=N)N)NC(=O)[C@H](CCSC)NC(=O)CNC(=O)[C@H](C)NC(=O)[C@H](CCCCN)NC(=O)[C@H](CCCCN)NC(=O)[C@@H]3CSSC[C@@H](C(=O)N[C@H](C(=O)N4CCC[C@H]4C(=O)N[C@@H](CCCCN)C(=O)O)[C@@H](C)O)NC(=O)[C@H](C)NC(=O)[C@H](CSSC[C@H](NC(=O)[C@H](CCC(N)=O)NC(=O)[C@H](CCCNC(=N)N)NC(=O)[C@H](CO)NC1=O)C(=O)N[C@@H](CC(C)C)C(=O)N[C@@H](CCC(=O)O)C(=O)N1CCC[C@H]1C(=O)N3)NC(=O)[C@H](CCCCN)NC(=O)CNC(=O)[C@H](CC(N)=O)NC(=O)[C@H](CCSC)NC2=O [H34A] (H-GVIINVKCKISRQCLEPCKKAGMRFGKCMNGKCACTPK-OH; disulfide 8-28, 14-33, 18-35)
IC50 [1, 4]: 57.3 pM | IC50 [2, 5]: 72.5 pM | Kv1.3 Selectivity (= Kv1.1/Kv.3 IC50) [3]: 797

CC[C@H](C)[C@@H]1NC(=O)[C@H](CCCCN)NC(=O)[C@@H](NC(=O)[C@H](CCCCN)NC(=O)[C@@H](NC(=O)[C@H](CC(N)=O)NC(=O)[C@@H](NC(=O)[C@@H](NC(=O)[C@@H](NC(=O)CN)C(C)C)[C@@H](C)CC)[C@@H](C)CC)C(C)C)CSSC[C@@H]2NC(=O)[C@H](CCCCN)NC(=O)CNC(=O)[C@H](Cc3ccccc3)NC(=O)[C@H](CCCNC(=N)N)NC(=O)[C@H](CCSC)NC(=O)CNC(=O)[C@H](C)NC(=O)[C@H](CCCCN)NC(=O)[C@H](CCCCN)NC(=O)[C@@H]3CSSC[C@@H](C(=O)N[C@H](C(=O)N4CCC[C@H]4C(=O)N[C@@H](CCCCN)C(=O)O)[C@@H](C)O)NC(=O)[C@H](CCC(=O)O)NC(=O)[C@H](CSSC[C@H](NC(=O)[C@H](CCC(N)=O)NC(=O)[C@H](CCCNC(=N)N)NC(=O)[C@H](CO)NC1=O)C(=O)N[C@@H](CC(C)C)C(=O)N[C@@H](CCC(=O)O)C(=O)N1CCC[C@H]1C(=O)N3)NC(=O)[C@H](CCCCN)NC(=O)CNC(=O)[C@H](CC(N)=O)NC(=O)[C@H](CCSC)NC2=O [H34E] (H-GVIINVKCKISRQCLEPCKKAGMRFGKCMNGKCECTPK-OH; disulfide 8-28, 14-33, 18-35)
IC50 [1, 4]: 2380 pM | IC50 [2, 5]: 1620 pM | Kv1.3 Selectivity (= Kv1.1/Kv.3 IC50) [3]: 30

CC[C@H](C)[C@@H]1NC(=O)[C@H](CCCCN)NC(=O)[C@@H](NC(=O)[C@H](CCCCN)NC(=O)[C@@H](NC(=O)[C@H](CC(N)=O)NC(=O)[C@@H](NC(=O)[C@@H](NC(=O)[C@@H](NC(=O)CN)C(C)C)[C@@H](C)CC)[C@@H](C)CC)C(C)C)CSSC[C@@H]2NC(=O)[C@H](C)NC(=O)CNC(=O)[C@H](Cc3ccccc3)NC(=O)[C@H](CCCNC(=N)N)NC(=O)[C@H](CCSC)NC(=O)CNC(=O)[C@H](C)NC(=O)[C@H](CCCCN)NC(=O)[C@H](CCCCN)NC(=O)[C@@H]3CSSC[C@@H](C(=O)N[C@H](C(=O)N4CCC[C@H]4C(=O)N[C@@H](CCCCN)C(=O)O)[C@@H](C)O)NC(=O)[C@H](Cc4c[nH]cn4)NC(=O)[C@H](CSSC[C@H](NC(=O)[C@H](CCC(N)=O)NC(=O)[C@H](CCCNC(=N)N)NC(=O)[C@H](CO)NC1=O)C(=O)N[C@@H](CC(C)C)C(=O)N[C@@H](CCC(=O)O)C(=O)N1CCC[C@H]1C(=O)N3)NC(=O)[C@H](CCCCN)NC(=O)CNC(=O)[C@H](CC(N)=O)NC(=O)[C@H](CCSC)NC2=O [K27A] (H-GVIINVKCKISRQCLEPCKKAGMRFGACMNGKCHCTPK-OH; disulfide 8-28, 14-33, 18-35)
IC50 [1, 4]: 1580 pM | IC50 [2, 5]: 1230 pM | Kv1.3 Selectivity (= Kv1.1/Kv.3 IC50) [3]: 35

CC[C@H](C)[C@@H]1NC(=O)[C@H](CCCCN)NC(=O)[C@@H](NC(=O)[C@H](CCCCN)NC(=O)[C@@H](NC(=O)[C@H](CC(N)=O)NC(=O)[C@@H](NC(=O)[C@@H](NC(=O)[C@@H](NC(=O)CN)C(C)C)[C@@H](C)CC)[C@@H](C)CC)C(C)C)CSSC[C@@H]2NC(=O)[C@H](CCCCN)NC(=O)CNC(=O)[C@H](Cc3ccccc3)NC(=O)[C@H](CCCNC(=N)N)NC(=O)[C@H](CCSC)NC(=O)CNC(=O)[C@H](C)NC(=O)[C@H](CCCCN)NC(=O)[C@H](CCCCN)NC(=O)[C@@H]3CSSC[C@@H](C(=O)N[C@H](C(=O)N4CCC[C@H]4C(=O)N[C@@H](CCCCN)C(=O)O)[C@@H](C)O)NC(=O)[C@H](Cc4c[nH]cn4)NC(=O)[C@H](CSSC[C@H](NC(=O)[C@H](CCC(N)=O)NC(=O)[C@H](CCCNC(=N)N)NC(=O)[C@H](CO)NC1=O)C(=O)N[C@@H](CCC(=O)O)C(=O)N[C@@H](CCC(=O)O)C(=O)N1CCC[C@H]1C(=O)N3)NC(=O)[C@H](CCCCN)NC(=O)CNC(=O)[C@H](CC(N)=O)NC(=O)[C@H](CCSC)NC2=O [L15E] (H-GVIINVKCKISRQCEEPCKKAGMRFGKCMNGKCHCTPK-OH; disulfide 8-28, 14-33, 18-35)
IC50 [1, 4]: 1060 pM | IC50 [2, 5]: 785 pM | Kv1.3 Selectivity (= Kv1.1/Kv.3 IC50) [3]: 342

GVIINVKCKISRQCLEACKKAGMRFGKCMNGKCHCTPK [Ala-17 (SEQ ID No: 1414)]
IC50 ([1]; read-out: Average IC50 IFNg): 173 pM | IC50 ([2]; read-out: Average IC50 IL-2): 173 pM

GVIINVKCKISRQCLEPCAKAGMRFGKCMNGKCHCTPK [Ala-19 (SEQ ID No: 1415)]
IC50 ([1]; read-out: Average IC50 IFNg): 162 pM | IC50 ([2]; read-out: Average IC50 IL-2): 162 pM

GVIINVKCKISRQCLEPCKAAGMRFGKCMNGKCHCTPK [Ala-20 (SEQ ID No: 1416)]
IC50 ([1]; read-out: Average IC50 IFNg): 379 pM | IC50 ([2]; read-out: Average IC50 IL-2): 379 pM

GVIINVKCKISRQCLEPCKKAAMRFGKCMNGKCHCTPK [Ala-22 (SEQ ID No: 1418)]
IC50 ([1]; read-out: Average IC50 IFNg): 7090 pM | IC50 ([2]; read-out: Average IC50 IL-2): 7090 pM

GVIINVKCKISRQCLEPCKKAGARFGKCMNGKCHCTPK [Ala-23 (SEQ ID No: 1419)]
IC50 ([1]; read-out: Average IC50 IFNg): 275 pM | IC50 ([2]; read-out: Average IC50 IL-2): 275 pM

GVIINVKCKISRQCLEPCKKAGMRAGKCMNGKCHCTPK [Ala-25 (SEQ ID No: 1421)]
IC50 ([1]; read-out: Average IC50 IFNg): 3080 pM | IC50 ([2]; read-out: Average IC50 IL-2): 3080 pM

GVIINVKCKISRQCLEPCKKAGMRFGACMNGKCHCTPK [Ala-27 (SEQ ID No: 1423)]
IC50 ([1]; read-out: Average IC50 IFNg): 1580 pM | IC50 ([2]; read-out: Average IC50 IL-2): 3450 pM

GVIINVKCKISRQCLEPCKKAGMRFGKCANGKCHCTPK [Ala-29 (SEQ ID No: 1424)]
IC50 ([1]; read-out: Average IC50 IFNg): 292 pM | IC50 ([2]; read-out: Average IC50 IL-2): 447 pM

GVIINVKCKISRQCLEPCKKAGMRFGKCMAGKCHCTPK [Ala-30 (SEQ ID No: 1425)]
IC50 ([1]; read-out: Average IC50 IFNg): 637 pM | IC50 ([2]; read-out: Average IC50 IL-2): 971 pM

GVIINVKCKISRQCLEPCKKAGMRFGKCMNGKCACTPK [Ala-34 (SEQ ID No: 1428)]
IC50 ([1]; read-out: Average IC50 IFNg): 57.3 pM | IC50 ([2]; read-out: Average IC50 IL-2): 72.5 pM

R12A, E16K, K20D (GVIINVKCKISAQCLKPCKDAGMRFGKCMNGKCHCTPK)
IC50 ([1]; read-out: WB/IFNg (IC50)): 92 pM | IC50 ([2]; read-out: WB/IL-2 (IC50)): 41 pM

des1, V2G, R12A, E16K, K19R, K20D, H34A (GIINVKCKISAQCLKPCRDAGMRFGKCMNGKCACTPK)
IC50 ([1]; read-out: WB/IFNg (IC50)): 2240 pM | IC50 ([2]; read-out: WB/IL-2 (IC50)): 1500 pM

des1-7, E16K, K20D, des36-38 (CKISRQCLKPCKDAGMRFGKCMNGKCHC-NH2; ends and bridges not checked)
IC50 ([1]; read-out: WB/IFNg (IC50)): 8340 pM | IC50 ([2]; read-out: WB/IL-2 (IC50)): 8180 pM

B1: FcLoop-G2-ShK-G2 (protein)
chain: MDKTHTCPPCPAPELLGGPSVFLFPPKPKDTLMISRTPEVTCVVVDVSHEDPEVKFNWYVDGVEVHNAKTKPREEQYNSTYRVVSVLTVLHQDWLNGKEYKCKVSNKALPAPIEKTISKAKGQPREPQVYTLPPSRDELGGRSCIDTIPKSRCTAFQCKHSMKYRLSFCRKTCGTCGGTKNQVSLTCLVKGFYPSDIAVEWESNGQPENNYKTTPPVLDSDGSFFLYSKLTVDKSRWQQGNVFSCSVMHEALHNHYTQKSLSLSPGK
IC50 ([1]; read-out: WB/IFNg (IC50)): 119 pM | IC50 ([2]; read-out: WB/IL-2 (IC50)): 109 pM

B2: 20k PEG-L2-6H-L3-CH2-L10-OsK1(1-38) (conjugate)
chain: MGGHHHHHHGGGPSVFLFPPKPKDTLMISRTPEVTCVVVDVSHEDPEVKFNWYVDGVEVHNAKTKPREEQYNSTYRVVSVLTVLHQDWLNGKEYKCKVSNKALPAPIEKTISGGGGSGGGGSGVIINVKCKISRQCLEPCKKAGMRFGKCMNGKCHCTPK
IC50 ([1]; read-out: WB/IFNg (IC50)): 50100 pM | IC50 ([2]; read-out: WB/IL-2 (IC50)): 8320 pM

B3: FcLoop-G4-OSK-G2 (protein)
chain: MDKTHTCPPCPAPELLGGPSVFLFPPKPKDTLMISRTPEVTCVVVDVSHEDPEVKFNWYVDGVEVHNAKTKPREEQYNSTYRVVSVLTVLHQDWLNGKEYKCKVSNKALPAPIEKTISKAKGQPREPQVYTLPPSRDELGGGGGVIINVKCKISRQCLEPCKKAGMRFGKCMNGKCHCTPKGGTKNQVSLTCLVKGFYPSDIAVEWESNGQPENNYKTTPPVLDSDGSFFLYSKLTVDKSRWQQGNVFSCSVMHEALHNHYTQKSLSLSPGK
IC50 ([1]; read-out: WB/IFNg (IC50)): 195 pM | IC50 ([2]; read-out: WB/IL-2 (IC50)): 150 pM

B4: FcLoop-G2-OSK-G2 (protein)
chain: MDKTHTCPPCPAPELLGGPSVFLFPPKPKDTLMISRTPEVTCVVVDVSHEDPEVKFNWYVDGVEVHNAKTKPREEQYNSTYRVVSVLTVLHQDWLNGKEYKCKVSNKALPAPIEKTISKAKGQPREPQVYTLPPSRDELGGGVIINVKCKISRQCLEPCKKAGMRFGKCMNGKCHCTPKGGTKNQVSLTCLVKGFYPSDIAVEWESNGQPENNYKTTPPVLDSDGSFFLYSKLTVDKSRWQQGNVFSCSVMHEALHNHYTQKSLSLSPGK
IC50 ([1]; read-out: WB/IFNg (IC50)): 56 pM | IC50 ([2]; read-out: WB/IL-2 (IC50)): 28 pM
